For 8 compounds, IC50 results are on record in patent US10800788B2, “4-(aryl)-N-(3-alkoxyfuro[2,3-b]pyrazin-2-yl)-piperazine-1-carboxamide derivative and antiproliferative effect thereof” (Dongguk University Industry-Academic Cooperation Foundation, priority 2016, dated 2020).

A value given as a limit tells only on which side of the number the result lay.

One assay has as its system A549. Kind of assay: Cell growth inhibition experiment (SRB), A549. Format: cell-based. As to conditions: Homo sapiens, A549, 96 h, 96 hours incubation, read-out: IC50 (μM) for cancer cell line A549. The gist of the method: (§1)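 Growth inhibition was assessed by sulforhodamine B staining after a 96 hour compound treatment of cells seeded at 2 to 3×10^3 per well, each compound tested three times.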

Assay [1] relates to MDA-MB-231 (breast cancer) cell line. Kind of assay: Cell growth inhibition experiment (SRB), MDA-MB-231. Format: cell-based, human. The following applies: Homo sapiens, MDA-MB-231, 96 h, 96 hours incubation. The gist of the method: (§2)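 Cells in DMEM with 10% FBS were seeded at 2 to 3×10^3 cells/well, dosed the next day and incubated 96 hours at 37° C, 5% CO2. After TCA fixation and sulforhodamine B staining, OD530 was converted to viable cell number with a per-line standard curve. % survival is test over control; triplicate runs.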

For the next assay, the system named is HEK293. In words: Cell growth inhibition experiment (SRB), HEK293. Format: cell-based, human. The following applies: Homo sapiens, HEK293, 96 h, 96 hours incubation, read-out: IC50 (μM) for cancer cell line HEK293. The gist of the method: as §1
Assay [2] relates to HN31 (head and neck cancer) cell line. Kind of assay: Cell growth inhibition experiment (SRB), HN31. Format: cell-based, human. As to conditions: Homo sapiens, 96 h, 96 hours incubation. A digest of the protocol:
as §2

The subject of assay [3] is UMRC2 (kidney cancer) cell line. In words: Cell growth inhibition experiment (SRB), UMRC2. In kind it is cell-based, human. As to conditions: Homo sapiens, UMRC2, 96 h, 96 hours incubation. A digest of the protocol:
as §2

For the next assay, the system named is SK-OV-3. In words: Cell growth inhibition experiment (SRB), SK-OV-3. Format: cell-based, human. As to conditions: Homo sapiens, SK-OV-3, 96 h, 96 hours incubation, read-out: IC50 (μM) for cancer cell line SK-OV-3. The gist of the method:
as §1

The subject of a further assay is HT29. Kind of assay: Cell growth inhibition experiment (SRB), HT29. In kind it is cell-based, human. The following applies: Homo sapiens, HT-29, 96 h, 96 hours incubation, read-out: IC50 (μM) for cancer cell line HT29. The gist of the method: as §1
For assay [4], the system named is PANC-1 (pancreatic cancer) cell line. Kind of assay: Cell growth inhibition experiment (SRB), PANC-1. Format: cell-based. The following applies: Homo sapiens, PANC-1, 96 h, 96 hours incubation. A digest of the protocol: as §2
For another assay, the system named is HUVEC. Kind of assay: Cell growth inhibition experiment (SRB), HUVEC. Format: cell-based, human. As to conditions: Homo sapiens, HUVEC, 96 h, 96 hours incubation, read-out: IC50 (μM) […]. The gist of the method:
as §1

Usually IC50 stands for the concentration that inhibits the measured activity by half. For the compound `CCOc1nc2oc(C)cc2nc1NC(=O)N1CCN(c2cc(OC)cc(OC)c2)CC1` [Example 31, 4-(3,5-Dimethoxyphenyl)-N-(3-ethoxy-6-methylfuro[2,3-b]pyrazin-2-yl)piperazine-1-carboxamide], the 50% inhibitory concentration (IC50) with A549 is 1.25 µM; in assay [1], 0.12 µM; in the assay with HEK293, under 2.5 µM; in [2], 1.63 µM; in assay [3], 0.36 µM; in the assay with SK-OV-3 it was under 2.5 µM. The IC50 in the assay on HT29 was under 2.5 µM; in assay [4] it was 0.44 µM; in the assay with HUVEC, under 2.5 µM.

For the compound `COc1nc2occc2nc1NC(=O)N1CCN(c2cc(C)cc(F)c2)CC1` [Example 6, 4-(3-Fluoro-5-methylphenyl)-N-(3-methoxyfuro[2,3-b]pyrazin-2-yl)piperazine-1-carboxamide], the IC50 in the assay with A549 was 1.78 µM; in [1], 1.13 µM; with HEK293, 1.83 µM; in [2] it was 1.98 µM; in [3] it was 1.21 µM; in the assay on SK-OV-3 it was under 2.5 µM. For the same compound, the results for the concentration for half-maximal inhibition (IC50) (in the assay on HT29; in assay [4]; in the assay with HUVEC) were under 2.5 µM, 0.98 µM and under 2.5 µM, respectively.

`COc1nc2occc2nc1NC(=O)N1CCN(c2cc(C(F)(F)F)cc(C(F)(F)F)c2)CC1` [Example 9, 4-(3,5-Bis(trifluoromethyl)phenyl)-N-(3-methoxyfuro[2,3-b]pyrazin-2-yl)piperazine-1-carboxamide]: the IC50 (in the assay on A549; in assay [1]; with HEK293; in assay [2]; in assay [3]; in the assay on SK-OV-3) was under 2.5 µM in each case. Besides, the IC50 (in the assay with HT29; in assay [4]; with HUVEC) was under 2.5 µM throughout.

With `COc1nc2oc(C)cc2nc1NC(=O)N1CCN(c2cc(C)cc(C)c2)CC1` [Example 25, 4-(3,5-Dimethylphenyl)-N-(3-methoxy-6-methylfuro[2,3-b]pyrazin-2-yl)piperazine-1-carboxamide], the IC50 is 0.22 µM in the assay with A549; 0.15 µM in assay [1]; 0.36 µM in the assay with HEK293; 0.17 µM in assay [2]; under 2.5 µM in [3]; 0.63 µM in the assay with SK-OV-3. For the same compound, the IC50 with HT29 was 0.25 µM; in assay [4], 0.08 µM; with HUVEC, 0.13 µM.

On to `CCOc1nc2oc(Cl)cc2nc1NC(=O)N1CCN(c2cc(F)cc(F)c2)CC1` [Example 57, N-(6-Chloro-3-ethoxyfuro[2,3-b]pyrazin-2-yl)-4-(3,5-difluorophenyl)piperazine-1-carboxamide], for which the IC50 (in the assay with A549; in assay [1]; in the assay with HEK293; in assay [2]; in [3]; in the assay on SK-OV-3) was under 2.5 µM each time. In addition, the IC50 (with HT29; in assay [4]; in the assay with HUVEC) was under 2.5 µM in each case.

`CCOc1nc2oc(C)cc2nc1NC(=O)N1CCN(c2cc(C(F)(F)F)cc(C(F)(F)F)c2)CC1` [Example 39, 4-(3,5-Bis(trifluoromethyl)phenyl)-N-(3-ethoxy-6-methylfuro[2,3-b]pyrazin-2-yl)piperazine-1-carboxamide]: the 50% inhibitory concentration (IC50) (in the assay on A549; in [1]; with HEK293; in [2]; in [3]; in the assay with SK-OV-3) was under 2.5 µM in each case. For the same compound, the concentration for half-maximal inhibition (IC50) (with HT29; in assay [4]; with HUVEC) was under 2.5 µM each time.

Consider `CCOc1nc2oc(C)cc2nc1NC(=O)N1CCN(c2cc(F)cc(F)c2)CC1` [Example 37, 4-(3,5-Difluorophenyl)-N-(3-ethoxy-6-methylfuro[2,3-b]pyrazin-2-yl)piperazine-1-carboxamide], for which the IC50 with A549 came out at 0.44 µM; in [1], 0.15 µM; in the assay on HEK293, 1.63 µM; in assay [2], 0.68 µM; in assay [3] it was 0.36 µM; in the assay with SK-OV-3, 2.13 µM. In addition, the values for the half-inhibitory concentration (IC50) (in the assay on HT29; in assay [4]; with HUVEC) were 1.28 µM, 0.51 µM and 1.25 µM, respectively.

Turning to `COc1cc(C)cc(N2CCN(C(=O)Nc3nc4cc(Cl)oc4nc3OC)CC2)c1` [Example 42, N-(6-Chloro-3-methoxyfuro[2,3-b]pyrazin-2-yl)-4-(3-methoxy-5-methylphenyl)piperazine-1-carboxamide], the IC50 was 1.87 µM in the assay with A549; 0.36 µM in assay [1]; 1.37 µM in the assay with HEK293; 1.68 µM in assay [2]; 1.68 µM in assay [3]; under 2.5 µM in the assay on SK-OV-3. Also, the figures for the IC50 (in the assay with HT29; in assay [4]; in the assay on HUVEC) were 1.87 µM, 1.23 µM and 1.47 µM, respectively.
